Assay results reported in patent publication US12098139B2, “Chemokine receptor modulators and uses thereof” (RAPT Therapeutics, Inc., priority 2018, dated 2024).
Like-named read-outs stand apart in the source and are kept apart here.

Biological target: T1, hCCR4 (Chem5-hCCR4 cells) (Homo sapiens, UniProt P51679)
T1 sequence (P51679 1-360): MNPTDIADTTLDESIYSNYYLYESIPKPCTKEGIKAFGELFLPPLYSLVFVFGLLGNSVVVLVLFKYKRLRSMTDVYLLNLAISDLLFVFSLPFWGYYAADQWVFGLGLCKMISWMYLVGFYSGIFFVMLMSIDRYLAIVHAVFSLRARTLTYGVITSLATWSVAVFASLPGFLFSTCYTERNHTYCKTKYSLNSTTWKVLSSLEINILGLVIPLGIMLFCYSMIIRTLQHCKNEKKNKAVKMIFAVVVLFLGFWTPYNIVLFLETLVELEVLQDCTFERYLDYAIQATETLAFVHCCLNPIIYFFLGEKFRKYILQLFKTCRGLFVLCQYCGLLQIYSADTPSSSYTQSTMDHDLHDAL
Assay: Calcium flux assay (CCL22-stimulated, FLIPR Calcium 6 dye)
Type: cell-based
Details: read-out: Potency (IC50)
Protocol: Calcium Flux Assay. Compounds were evaluated in a calcium flux assay substantially performed as follows. Chem5-hCCR4 cells (EMD Millipore, Hayward, CA; HTS009C) were cultured under standard conditions and frozen in aliquots of 10×10^6 cells/mL. The day prior to compound testing, a vial was rapidly thawed and pipetted into 20 mL media (DMEM+10% FBS+1% Pen-Strep+1% L-glutamine). Cells were harvested by centrifugation and re-suspended in fresh culture medium. 25 μL of cell suspension was seeded into 384-well plates (Corning, Tewksbury, MA; CellBind with black wall/clear bottom). The plates were centrifuged at 300 g for 10 seconds and incubated overnight at 37° C. and 5% CO2. The day of compound testing, media was removed from the plates and 25 μL serum free media was added to each well. Plates were returned to the incubator for 2 h. 25 μL assay buffer (Hank's balanced salt solution+20 mM HEPES pH 7.4) containing FLIPR Calcium 6 dye (Molecular Devices, Sunnyvale, CA; #R8191) and probenecid (2.5 mM) was added to each well and incubated at 37° C. and 5% CO2 for 2 h. Compounds in DMSO were added to the plates using an HP D300e digital dispenser, and all wells were normalized to contain 0.25 μL (0.5%) DMSO. Plates were incubated for 1 hour at 37° C. and 5% CO2. CCL22 (Peprotech; Rockyhill, NJ) was diluted in assay buffer containing 0.1% BSA to 7.5 nM (corresponding to 5×EC80 of 1.5 nM).
Assay plates and working solution of CCL22 were transferred to the FlexStation plate reader (Molecular Devices) at 37° C. for 5 min of equilibration. Fluorescence recordings at 485 excitation/525 emission were performed at 2.5 second intervals. At t=16 seconds, 12.5 μL of CCL22 solution was added to each well and reads continued for 30 seconds at 2.5 second intervals. The minimum fluorescence (Fmin) was calculated by averaging the reads prior to ligand addition and the change in fluorescence (ΔF) was calculated by subtracting the Fmin from the average of the reads following ligand addition. The response ΔF/Fmin was plotted as a function of the compound concentration and the IC50 values were determined by non-linear regression analysis using a 4-parameter fit in either PRISM software (GraphPad; La Jolla, CA) or Dotmatics Browser.

| SMILES | IC50 (Table 5, CCL22 1.5 nM) | IC50 (Table 3, CCL22 1.5 nM) |
| --- | --- | --- |
| C[C@@H](Nc1nc(N2CC([C@H]3CCCN(CCO)C3)C2)nc2ccsc12)c1ccc(Cl)cc1Cl [Example 62, 2-[(3R)-3-[1-[4-[[(1R)-1-(2,4-dichlorophenyl)ethyl]amino]thieno[3,2-d]pyrimidin-2-yl]azetidin-3-yl]-1-piperidyl]ethanol; 2,2,2-trifluoroacetic acid] | < 100 nM | – |
| C[C@@H](Nc1cncc(N2CC([C@H]3CCCN(CCO)C3)C2)n1)c1ccc(Cl)cc1Cl [Example 2, 2-((R)-3-(1-(6-(((R)-1-(2,4-dichlorophenyl)ethyl)amino)pyrazin-2-yl)azetidin-3-yl)piperidin-1-yl)ethan-1-ol] | – | 100 to 500 nM |
| C[C@@H](Nc1nc(N2CC([C@H]3CCCN(CC(=O)N4CCCC4)C3)C2)ncc1Cl)c1ccc(Cl)cc1Cl [Example 56, 2-[(3R)-3-[1-[5-chloro-4-[[(1R)-1-(2,4-dichlorophenyl)ethyl]amino]pyrimidin-2-yl]azetidin-3-yl]-1-piperidyl]-1-pyrrolidin-1-yl-ethanone; 2,2,2-trifluoroacetic acid] | 100 to 500 nM | – |
| C[C@@H](Nc1nc(N2CC([C@H]3CCCN(CCO)C3)C2)ncc1C#N)c1ccc(Cl)cc1Cl [Example 14, 4-(((R)-1-(2,4-dichlorophenyl)ethyl)amino)-2-(3-((R)-1-(2-hydroxyethyl)piperidin-3-yl)azetidin-1-yl)pyrimidine-5-carbonitrile] | – | < 100 nM |
| C[C@@H](Nc1nc(N2CC([C@H]3CCCN(CCO)C3)C2)ncc1C(=O)N1CCCC1)c1ccc(Cl)cc1Cl [Example 85, [4-[[(1R)-1-(2,4-dichlorophenyl)ethyl]amino]-2-[3-[(3R)-1-(2-hydroxyethyl)-3-piperidyl]azetidin-1-yl]pyrimidin-5-yl]-pyrrolidin-1-yl-methanone; 2,2,2-trifluoroacetic acid] | 100 to 500 nM | – |
| C[C@@H](Nc1nc(N2CC([C@H]3CCCN(CCO)C3)C2)ncc1C#N)c1ccc(S(C)(=O)=O)cc1Cl [Example 42, 4-(((R)-1-(2-chloro-4-(methylsulfonyl)phenyl)ethyl)amino)-2-(3-((R)-1-(2-hydroxyethyl)piperidin-3-yl)azetidin-1-yl)pyrimidine-5-carbonitrile] | – | > 500 nM |
| C[C@@H](Nc1nc(N2CC([C@H]3CCCN([C@H]4C[C@@H](C(=O)O)C4)C3)C2)nc2ccccc12)c1ccc(Cl)cc1Cl [Example 95, 3-[(1S,3R)-3-[1-[4-[[(1R)-1-(2,4-dichlorophenyl)ethyl]amino]quinazolin-2-yl]azetidin-3-yl]-1-piperidyl]cyclobutanecarboxylic acid; 2,2,2-trifluoroacetic acid] | < 100 nM | – |
| C[C@@H](Nc1nc(N2CC(C3CCCN(CCN4CCCC4=O)C3C(=O)O)C2)ncc1Cl)c1ccc(Cl)cc1Cl (stereo partly drawn) [Example 34, 3-(1-(5-chloro-4-(((R)-1-(2,4-dichlorophenyl)ethyl)amino)pyrimidin-2-yl)azetidin-3-yl)-1-(2-(2-oxopyrrolidin-1-yl)ethyl)piperidine-2-carboxylic acid] | – | 100 to 500 nM |
| C[C@@H](Nc1nc(N2CC([C@H]3CCCN(CCO)C3)C2)ncc1Cl)c1ccc(Cl)cc1Cl [Example 10, 2-((R)-3-(1-(5-chloro-4-(((R)-1-(2,4-dichlorophenyl)ethyl)amino)pyrimidin-2-yl)azetidin-3-yl)piperidin-1-yl)ethan-1-ol] | – | < 100 nM |
| C[C@@H](Nc1nc(N2CC([C@H]3CCCN(CCO)C3)C2)cnc1C#N)c1ccc(S(C)(=O)=O)cc1Cl [Example 7, 3-(((R)-1-(2-chloro-4-(methylsulfonyl)phenyl)ethyl)amino)-5-(3-((R)-1-(2-hydroxyethyl)piperidin-3-yl)azetidin-1-yl)pyrazine-2-carbonitrile] | – | > 500 nM |

The next lines start with the values.

| IC50 (Table 5, CCL22 1.5 nM) | IC50 (Table 3, CCL22 1.5 nM) | SMILES |
| --- | --- | --- |
| < 100 nM | – | C[C@@H](Nc1nc(N2CC([C@H]3CCCN(C4CC(C)(C(=O)O)C4)C3)C2)ncc1CO)c1ccc(Cl)cc1Cl (single isomer, unassigned) [Example 68] |
| – | < 100 nM | Cc1nc(N2CC([C@H]3CCCN([C@H]4C[C@](C)(C(=O)O)C4)C3)C2)nc(N[C@H](C)c2ccc(Cl)cc2Cl)c1Cl [Example 38, (1R,3r)-3-((R)-3-(1-(5-chloro-4-(((R)-1-(2,4-dichlorophenyl)ethyl)amino)-6-methylpyrimidin-2-yl)azetidin-3-yl)piperidin-1-yl)-1-methylcyclobutane-1-carboxylic acid] |
| – | 100 to 500 nM | CC[C@]1(C(=O)O)C[C@H](N2CCC[C@H](C3CN(c4ncc(Cl)c(N[C@H](C)c5ccc(Cl)cc5Cl)n4)C3)C2)C1 [Example 23, (1R,3s)-3-((R)-3-(1-(5-chloro-4-(((R)-1-(2,4-dichlorophenyl)ethyl)amino)pyrimidin-2-yl)azetidin-3-yl)piperidin-1-yl)-1-ethylcyclobutane-1-carboxylic acid] |
| – | < 100 nM | CCOC(=O)c1cnc(N2CC([C@H]3CCCN(CCO)C3)C2)nc1N[C@H](C)c1ccc(Cl)cc1Cl [Example 32, ethyl 4-(((R)-1-(2,4-dichlorophenyl)ethyl)amino)-2-(3-((R)-1-(2-hydroxyethyl)piperidin-3-yl)azetidin-1-yl)pyrimidine-5-carboxylate] |
| – | < 100 nM | C[C@@H](Nc1nc(N2CC([C@H]3CCCN([C@H]4C[C@](C)(C(=O)O)C4)C3)C2)ncc1C(F)(F)F)c1ccc(Cl)cc1Cl [Example 39, (1R,3r)-3-((R)-3-(1-(4-(((R)-1-(2,4-dichlorophenyl)ethyl)amino)-5-(trifluoromethyl)pyrimidin-2-yl)azetidin-3-yl)piperidin-1-yl)-1-methylcyclobutane-1-carboxylic acid] |
| < 100 nM | – | C[C@@H](Nc1nc(N2CC([C@H]3CCCN(C4CC(C)(C(=O)O)C4)C3)C2)ncc1C1CC1)c1ccc(Cl)cc1Cl (single isomer, unassigned) [Example 54] |
| < 100 nM | – | C[C@@H](Nc1nc(N2CC([C@H]3CCCN([C@H]4C[C@](C)(C(=O)O)C4)C3)C2)nc2ccccc12)c1ccc(Cl)cc1Cl [Example 94, 3-[(1R,3R)-3-[1-[4-[[(1R)-1-(2,4-dichlorophenyl)ethyl]amino]quinazolin-2-yl]azetidin-3-yl]-1-piperidyl]-1-methyl-cyclobutanecarboxylic acid; 2,2,2-trifluoroacetic acid] |
| – | 100 to 500 nM | C[C@@H](Nc1nc(N2CC([C@H]3CCCN([C@H]4C[C@](C)(C(=O)O)C4)C3)C2)ncc1F)c1ccc(Cl)cc1Cl [Example 47, (1R,3r)-3-((R)-3-(1-(4-(((R)-1-(2,4-dichlorophenyl)ethyl)amino)-5-fluoropyrimidin-2-yl)azetidin-3-yl)piperidin-1-yl)-1-methylcyclobutane-1-carboxylic acid] |
| – | < 100 nM | C[C@@H](Nc1nc(N2CC([C@H]3CCCN([C@H]4C[C@@H](C(=O)O)C4)C3)C2)ncc1Cl)c1ccc(Cl)cc1Cl [Example 8, (1S,3s)-3-((R)-3-(1-(5-chloro-4-(((R)-1-(2,4-dichlorophenyl)ethyl)amino)pyrimidin-2-yl)azetidin-3-yl)piperidin-1-yl)cyclobutane-1-carboxylic acid] |
| – | 100 to 500 nM | Cc1nc(N2CC([C@H]3CCCN([C@H]4C[C@@H](C(=O)O)C4)C3)C2)nc(N[C@H](C)c2ccc(Cl)cc2Cl)c1C [Example 30, (1S,3s)-3-((R)-3-(1-(4-(((R)-1-(2,4-dichlorophenyl)ethyl)amino)-5,6-dimethylpyrimidin-2-yl)azetidin-3-yl)piperidin-1-yl)cyclobutane-1-carboxylic acid] |
| > 500 nM | – | COc1cc(N[C@H](C)c2ccc(Cl)cc2Cl)nc(N2CC([C@H]3CCCN(C4CC(C)(C(=O)O)C4)C3)C2)n1 (single isomer, unassigned) [Example 82] |
| < 100 nM | – | Cc1cc(N[C@H](C)c2ccc(Cl)cc2Cl)nc(N2CC([C@H]3CCCN(C4CC(C)(C(=O)O)C4)C3)C2)n1 (single isomer, unassigned) [Example 90] |
| < 100 nM | – | CC(=O)c1cnc(N2CC([C@H]3CCCN(C4CC(C)(C(=O)O)C4)C3)C2)nc1N[C@H](C)c1ccc(Cl)cc1Cl (single isomer, unassigned) [Example 78] |
